In US8093025B2, “Bacterial vector” (Helmholtz-Zentrum fuer Infektionsforschung GmbH, priority 2004, dated 2012):

Tests used:
PBAD [1] = test: In vitro regulation of copy number of plasmid pAEN17 (GFP read-out) in bacterial culture; format: cell-based, Salmonella enterica serovar Typhimurium; conditions: addition of L-arabinose, trfA under PBAD acting on oriV
Description: In the absence of L-arabinose, just one copy of this plasmid per bacterial cell is maintained, regulated by the origin of replication derived from the F plasmid of Escherichia coli. In addition, this plasmid contains the inducible origin of replication of plasmid RK2, namely oriV. The replicase gene trfA, acting on this origin, is placed under the control of PBAD, as an example for a saccharide inducible promoter.
In order to allow for a convenient analysis of plasmid replication, GFP was placed under control of the weak constitutive Pbla promoter derived from the bla gene, also contained on said vector. The recombinant strain SL7207[pAEN17] was grown into logarithmic phase and either no or 0.1% L-Arabinose was added into bacterial cultures.

CT26 tumor [2] = test: In vivo colonization and luciferase transgene induction in CT26 tumor-bearing mice; set-up: species or system Balb/c mice
Description: As a representative for a transgene, the luciferase gene from the firefly Photinus pyralis was used as the reporter gene. As the saccharide inducible promoter element, PBAD from the L-arabinose operon of E. coli was functionally linked to the luciferase gene, the promoter element further being in conjunction with the structural gene for its regulator protein araC under the control of its natural own promoter (PC). The bacterial vector was generated by transforming Salmonella enterica serovar Typhimurium, vaccine strain SL7207, with the plasmid containing the transgene under the control of the saccharide inducible promoter by electroporation.
As an example for an animal having a tumor, Balb/c mice were subcutaneously inoculated abdominally with 10^6 cells of the colon adenocarcinoma cell line CT26. After this tumor generation treatment, mice bearing tumors of approximately 400-600 mm^3 were intravenously injected with 5×10^6 bacteria of the above bacterial vector (SL7207[pHL259]), representing the first component of the pharmaceutical combination, suspended in phosphate buffered saline (PBS). Three days post infection, L-arabinose as the appropriate inductor saccharide, representing the second component of the pharmaceutical combination, was administered intraperitoneally, dissolved in PBS. Subsequently, mice were sacrificed and the tumors, spleens and livers dissected, then transferred into 3 mL of sterile, ice-cold PBS containing 0.1% (vol/vol) Triton X-100.
Tissues were disrupted in a Polytron PG3000 homogenizer (Kinematica, Littau, Switzerland). Homogenates were diluted in PBS and streaked on medium plates with selective antibiotic (ampicillin). Colonies were counted after incubation of plates. As a result, the number of bacteria in respective tissues could be calculated by counting the resulting colony forming units (cfu) for each organ.
The induction of the transgene was determined by measurement of the reporter gene (luciferase) activity from tissue homogenates after dilution (1:1) in 2× luciferase assay lysis buffer (50 mM tris-HCl, 4 mM DTT, 20% (vol/vol) glycerol, 2% (vol/vol) Triton X-100, 2 mg/mL lysozyme, pH 8.3), incubation at 25° C. for 10 minutes, centrifugation at 3,000×g for 3 minutes, 10 μL supernatant were added to 100 mL LARII reagent of the luciferase assay system according to the manufacturer's instructions (Promega, Mannheim, Germany). Luminescence intensity was measured spectrometrically in a luminometer (Lumat LB9507, Berthold, Pforzheim, Germany). Dilution was taken into account when calculating RLU per organ.

PBAD [3] = test: Induction of plasmid replication in bacterial vector within infected J774A1 cells (GFP read-out); format: cell-based, murine; conditions: SL7207[pAEN17] in J774A1 cells, L-arabinose 4 mM, 40 mM, 400 mM, 3 hours
Experimental: J774A1 cells, a murine macrophage cell line, were infected with strain SL7207[pAEN17], as described in Example 2. 4 hours after infection, different amounts of L-arabinose were added into individual wells of infected J774A1 cells up to a concentration in the medium of 4 mM, 40 mM and 400 mM, respectively. 3 hours after addition of L-arabinose cells were treated with 0.25% Triton X-100. Bacteria in the lysates were monitored for GFP expression by flow cytometry as described in Example 2. The analytical results are depicted in FIG. 7, with unspecific background fluorescence substracted.

PBAD [4] = test: GFP expression from bacterial vector within infected J774A1 cells, two colour flow cytometry; format: cell-based, murine; conditions: SL7207[pHL238] in J774A1 cells, L-arabinose 4 mM, 40 mM, 400 mM in medium, 3 hours
Experimental: The murine macrophage cell line J774A1 was infected with bacterial vector SL7207[pHL238] of Example 1. Before infection, cells were seeded to 2×10^6 cells per well in a 6-well plate in antibiotic-free medium (IMDM with 10% inactivated fetal calf serum, 2 mM glutamine) and grown for one day in a 5% CO2 atmosphere at 37° C. For infection, SL7207[pHL238] were grown from a glycerol stock overnight at 37° C. on a LB plate supplemented with antibiotics, followed by cultivation in liquid LB medium supplemented with antibiotics for approximately 2 hours at 37° C., shaking at 60 rpm. Bacteria were harvested by centrifugation, washed in PBS, resuspended in cell culture medium and added at a ˜MOI of 10. 30 min after start of infection cells were washed twice with PBS before medium containing gentamycin (50 μg/mL) was added to kill extracellular bacteria. […] GFP expressing bacteria in the lysates were monitored by flow cytometry. In order to differentiate fluorescence of GFP expressing bacteria from autofluorescent cell fragments the so-called two colour flow cytometry method was used (Bumann, Infect. Immun. (2001) 69, 4618-4626.). The analytical results are depicted in FIG. 3, with unspecific background fluorescence substracted. […]

CT26 tumor [5] = test: Vector with gene E under Prha and lux under PBAD plus TNFalpha in CT26 tumor mice; format: in vivo, Balb/c mice
Description: As an example for multifunctional bacterial vectors for use in the pharmaceutical combination according to the invention, vaccine strain SL7207 was genetically manipulated by Tn7 mediated chromosomal integration of the mini-transposon of a plasmid pHL260b, modified from pHL260a by replacing the PBAD promoter by the L-rhamnose inducible promoter (Prha), derived from plasmid pJOE2702 (Stumpp et al., Biospektrum 6, 33-36(2000)). This strain chromosomally contains at least one copy of gene E of bacteriophage phiX174 under the control of the rhamnose inducible promoter (Prha). The resultant strain was then transformed with plasmid pTNFa-lux, containing the bioluminescence operon of Photorhabdus luminescence under control of the PBAD promoter in combination with the mouse TNFalpha gene under the control of the constitutive promoter from beta-lactamase (Pbla).
As described in Example 8, Balb/c mice bearing a CT26 tumor were administered 5×10^6 bacterial vector, suspended in PBS by intravenous administration. […] Upon administration of 120 mg L-arabinose dissolved in PBS intraperitoneally, to the same mice 1 day later, as well as on consecutive days, colonization of tumor tissue by bacterial vectors was monitored by spectrometry, more specifically luminometric analysis of anesthesized mice using a CCD camera.

PBAD [6] = test: In vivo GFP expression from bacterial vector re-isolated from spleen of infected mice; set-up: species or system Balb/c mice; conditions: SL7207[pHL238] i.v., L-arabinose i.v. after 2 days, spleen 4 hours later
Experimental: Balb/c mice were infected intravenously with a dose of ca. 5×10^6 bacteria in PBS of bacterial vector SL7207[pHL238]. After 2 days, different amounts of L-arabinose dissolved in PBS were administered intravenously into mice. 4 hours after L-arabinose administration mice were sacrificed, spleens were removed, homogenized in PBS containing 0.1% Triton X-100 and lysates were analyzed by two colour flow cytometry.

PBAD [7] = test: GFP expression from plasmid pHL238 in bacterial culture after induction, flow cytometry; format: cell-based, Salmonella enterica serovar Typhimurium; conditions: induction by L-arabinose, vector SL7207[pHL238]
Description: As an example for a structural gene, plasmid pHL238 (schematically depicted in FIG. 1) comprising the structural gene for green fluorescent protein (GFP) under the control of PBAD was cloned, further comprising the structural gene for the regulator of PBAD, araC under the control of its own promoter Pc, along with the Ampicillin resistance gene as a selection marker, and a high copy number origin of replication from pUC. Regulatory elements originate from plasmid pBAD18 (Guzman et al., J. Bacteriol. 1995 July; 177(14):4121-30)
This bacterial vector is based on Salmonella enterica serovar Typhimurium, strain SL7207, which is a known attenuated invasive salmonella strain in use for experimental vaccination. The salmonella strain was transformed with plasmid pHL238 by electroporation, transformed colonies were selected on LB-medium agar plates containing streptomycin at 30 μg/mL and ampicillin at 100 μg/mL. The resultant transformed strain was bacterial vector SL7207[pHL238]. […] Results are shown in FIG. 2, the thick line for addition of L-arabinose, the thin line without L-arabinose.

[8] = tested on: SL7207 bearing the plasmid of FIG. 8; test: Induced lysis (gene E) of bacterial vector within infected J774A1 cells, CFU; format: cell-based, Salmonella enterica serovar Typhimurium; conditions: SL7207 with gene E plasmid pHL241, induction period 3 hours
Experimental: The plasmid pHL241 shown in FIG. 8 was derived from plasmid pHL238 shown in FIG. 1 by exchanging gene gfp against gene E.
For infection, J774A1 cells were cultured and infected with SL7207 bearing the plasmid of FIG. 8 according to the procedure of Example 2. Induction was by addition of L-arabinose to the final concentrations in cell culture medium as given in FIG. 9, for an induction period of 3 hours. Following induction, cells were harvested and lysed by addition of Triton X-100 to a concentration of 1 g/L. For re-isolation, intracellular bacterial vectors were plated on LB-agar containing ampicillin for quantification of viable bacteria as colony forming units (CFU).

Row | Compound | copy number of the plasmid pAEN17 (PBAD [1]) | induction of transgene expression (luciferase, RLU) (CT26 tumor [2]; L-arabinose i.p. three days post infection, tumor, spleen, liver) | transgene activity in spleen and liver (CT26 tumor [2]; spleen and liver) | time of main transgene activity past administration of the inductor saccharide (CT26 tumor [2]; tumor tissue) | absolute transgene activity, comparison of tissues (CT26 tumor [2]; tumor, spleen, liver) | fluorescence intensity of GFP (PBAD [3]) | fluorescence intensity of GFP (PBAD [4]) | bioluminescence from lux operon under PBAD (CT26 tumor [5]; 120 mg L-arabinose i.p., repeated administration after L-rhamnose) | expression of GFP by bacteria recovered from infected animals (PBAD [6]) | GFP fluorescence relative to background without induction (PBAD [7]) | number of viable bacterial vectors inside infected J774A1 cells (CFU) [8] | lysis of bacterial vector and release of TNFalpha (CT26 tumor [5]; 120 mg L-rhamnose i.p. 3 days after vector i.v.)
1 | O=C[C@H](O)[C@@H](O)[C@@H](O)CO [L-arabinose] | increased copy number | induces transgene expression for all tissues tested | very low to about background levels | about 6 hours | greatest in tumor tissue | increases with increasing concentrations of L-arabinose | increases with increasing concentrations of L-arabinose | bioluminescence | induced by L-Arabinose in a dose-dependent manner | more than two orders above the background fluorescence | drastically decreases the number of viable bacterial vectors | 
2 | C[C@H](O)[C@H](O)[C@@H](O)[C@@H](O)C=O [L-rhamnose] |  |  |  |  |  |  |  |  |  |  |  | lysis of bacterial vector and release of TNFalpha was observed
